Test results from article PMC4192545, “Suramin Inhibits Hsp104 ATPase and Disaggregase Activity” (PLoS ONE, 2014).

Experiments:
[1] = biological target: T1, Hsp104^WT (Saccharomyces cerevisiae, UniProt P31539); experiment: RepA1–70-GFP unfolding assay; type: biochemical, yeast; settings: GroELtrap, ATP:ATPγS 1:1
T1 construct: made in house; host or cells: E. coli BL21-DE3 RIL
Procedure: RepA1–70-GFP unfolding was performed as described previously. Varying concentrations of Suramin (0, 25, or 100 µM) were included as noted.
Next, we determined that Suramin hinders the unfoldase activity of Hsp104 using a RepA1–70-GFP substrate ( Figure 4A ). To assess RepA1–70-GFP unfolding without interference from spontaneous refolding, we added GroELtrap, which captures unfolded proteins to prevent refolding, [71].
Figure 4 Suramin inhibits Hsp104-mediated substrate unfolding and translocation. (A) RepA1–70-GFP was incubated with Hsp104^WT and GroELtrap plus a 1∶1 mixture of ATP and ATPγS. GFP unfolding was measured by fluorescence. GroELtrap alone is shown as a negative control (red line). Fluorescence values were normalized to initial raw fluorescence for each sample. Values represent mean ±S.D. (n = 3). (B) FITC-casein (0.1 µM) was incubated at 25°C with HAP (1 µM hexamer) and ClpP (21 µM monomer) plus ATP (5 mM) and an ATP regeneration system. Degradation of FITC-casein was monitored by fluorescence. Initial fluorescence was subtracted from raw fluorescence values for each sample. HAP alone is shown as a negative control (red line). Values represent mean ±S.D. (n = 5).

[2] = tested on: HAP (Hsp104 variant) with ClpP; experiment: FITC-casein degradation (substrate translocation) assay; type: biochemical; settings: 25°C
Procedure: FITC-casein (0.1 µM) was incubated with HAP (1 µM hexamer) and ClpP (21 µM monomer) at 25°C. ATP ([…]) and an ATP-regenerating system were included in all reactions. Varying concentrations of Suramin (0, 25, or 100 µM) were included as noted. We monitored degradation of FITC-casein by measuring fluorescence (excitation 490 nm, emission 520 nm) using a Tecan Safire^2 microplate reader (Tecan, Männedorf, Switzerland).
Next, we established that Suramin hampers substrate translocation by Hsp104 using an engineered Hsp104 variant, HAP, which anchors to the bacterial peptidase ClpP to form a novel proteolytic system. Thus, HAP translocates fluorescein isothiocyanate (FITC)-casein for degradation by ClpP. Fluorescence increases as FITC is released from degraded casein and can be used as a surrogate for substrate translocation. […] Note that both the unfolding and translocation activities appear less sensitive to Suramin than disaggregase activity ( Figures 3B , 4A and 4B ). Thus, disaggregation of protein aggregates makes more stringent demands on the Hsp104 hexamer than the unfolding or translocation of soluble substrates. Altogether, we have established that Suramin greatly decreases Hsp104 ATPase activity, drastically impairs its capacity to refold luciferase and hinders its substrate unfolding and translocation activities.

[3] = biological target: T2, ClpB (Escherichia coli, UniProt P63284); experiment: ClpB ATPase assay; type: biochemical, E. coli; settings: for Normalized ATPase Activity: 10 min, ATP 1 mM, Figure 5A
T2 construct: made in house
T2 sequence (P63284 whole entry): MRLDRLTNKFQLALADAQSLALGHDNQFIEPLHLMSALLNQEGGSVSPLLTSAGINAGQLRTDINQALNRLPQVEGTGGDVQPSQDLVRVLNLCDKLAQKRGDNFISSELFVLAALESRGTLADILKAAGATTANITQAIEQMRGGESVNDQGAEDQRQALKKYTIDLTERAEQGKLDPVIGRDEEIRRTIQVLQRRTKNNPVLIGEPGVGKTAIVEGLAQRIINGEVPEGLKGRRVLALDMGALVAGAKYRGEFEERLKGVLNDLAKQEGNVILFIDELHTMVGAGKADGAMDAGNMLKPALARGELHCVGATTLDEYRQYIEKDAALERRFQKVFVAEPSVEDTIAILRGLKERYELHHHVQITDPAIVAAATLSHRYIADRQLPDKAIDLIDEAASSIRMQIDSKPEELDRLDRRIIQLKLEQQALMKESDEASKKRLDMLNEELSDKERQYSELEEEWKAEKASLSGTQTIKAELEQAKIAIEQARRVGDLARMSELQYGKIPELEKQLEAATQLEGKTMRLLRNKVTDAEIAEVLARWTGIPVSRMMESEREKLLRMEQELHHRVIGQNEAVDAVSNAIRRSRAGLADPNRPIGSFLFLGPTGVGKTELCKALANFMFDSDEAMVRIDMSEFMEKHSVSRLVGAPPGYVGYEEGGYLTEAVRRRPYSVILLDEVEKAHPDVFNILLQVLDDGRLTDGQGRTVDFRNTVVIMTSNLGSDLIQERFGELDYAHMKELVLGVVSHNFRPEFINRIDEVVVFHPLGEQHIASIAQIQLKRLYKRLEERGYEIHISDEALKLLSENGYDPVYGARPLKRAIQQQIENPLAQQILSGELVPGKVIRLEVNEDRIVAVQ
Procedure: Wild-type or mutant Hsp104 (0.25 µM monomer) in ATPase buffer (20 mM HEPES-KOH pH 7.4, 20 mM NaCl and 10 mM MgCl2) was incubated for 60 or 10 min at 25°C in the presence of ATP (1 mM) as noted. ATPase activity was assessed by the release of inorganic phosphate determined by using a malachite green phosphate detection kit (Innova).
(A) ClpB (0.25 µM monomer) was incubated for 10 min with ATP (1 mM) and varying concentrations of Suramin. The amount of Pi produced was measured by absorbance at 635 nm. Absorbance values were normalized to the absorbance produced by ClpB in the absence of inhibitor. Values represent mean ±S.D. (n = 6). (B) Urea-denatured firefly luciferase aggregates were incubated for 90 min at 25°C with ClpB (1 µM hexamer) in the presence of 1∶1 mixtures of ATP and ATPγS and varying concentrations of Suramin. Reactivation of luciferase was then determined by luminescence and converted to % WT ClpB activity (activity of 1 µM WT ClpB in the presence of ATP and ATPγS). Values represent mean ±S.D. (n = 6–12). TEXT PRINTED IN THE PICTURE: (A) Suramin: Normalized ATPase Activity: 1.03 ([Suramin] μM: 0); Normalized ATPase Activity: 0.76 ([Suramin] μM: 100); Normalized ATPase Activity: 0.78 ([Suramin] μM: 50); Normalized ATPase Activity: 0.60 ([Suramin] μM: 25); Normalized ATPase Activity: 0.59 ([Suramin] μM: 10); Normalized ATPase Activity: 0.65 ([Suramin] μM: 5); Normalized ATPase Activity: 1.01 ([Suramin] μM: 1) | (B) Suramin: Normalized Luciferase Refolding Activity: 1.00 ([Suramin] μM: 0); Normalized Luciferase Refolding Activity: 0.16 ([Suramin] μM: 100); Normalized Luciferase Refolding Activity: 1.03 ([Suramin] μM: 50); Normalized Luciferase Refolding Activity: 1.39 ([Suramin] μM: 25); Normalized Luciferase Refolding Activity: 2.23 ([Suramin] μM: 10); Normalized Luciferase Refolding Activity: 1.82 ([Suramin] μM: 5); Normalized Luciferase Refolding Activity: 1.02 ([Suramin] μM: 1)

[4] = biological target: T3, Hsp104 (Saccharomyces cerevisiae, UniProt P31539); experiment: Gel filtration of Hsp104 (hexamerization); design: species or system yeast; settings: Suramin 100 µM, with or without ATP 1 mM
T3 construct: made in house; host or cells: E. coli BL21-DE3 RIL
T3 sequence (P31539 whole entry): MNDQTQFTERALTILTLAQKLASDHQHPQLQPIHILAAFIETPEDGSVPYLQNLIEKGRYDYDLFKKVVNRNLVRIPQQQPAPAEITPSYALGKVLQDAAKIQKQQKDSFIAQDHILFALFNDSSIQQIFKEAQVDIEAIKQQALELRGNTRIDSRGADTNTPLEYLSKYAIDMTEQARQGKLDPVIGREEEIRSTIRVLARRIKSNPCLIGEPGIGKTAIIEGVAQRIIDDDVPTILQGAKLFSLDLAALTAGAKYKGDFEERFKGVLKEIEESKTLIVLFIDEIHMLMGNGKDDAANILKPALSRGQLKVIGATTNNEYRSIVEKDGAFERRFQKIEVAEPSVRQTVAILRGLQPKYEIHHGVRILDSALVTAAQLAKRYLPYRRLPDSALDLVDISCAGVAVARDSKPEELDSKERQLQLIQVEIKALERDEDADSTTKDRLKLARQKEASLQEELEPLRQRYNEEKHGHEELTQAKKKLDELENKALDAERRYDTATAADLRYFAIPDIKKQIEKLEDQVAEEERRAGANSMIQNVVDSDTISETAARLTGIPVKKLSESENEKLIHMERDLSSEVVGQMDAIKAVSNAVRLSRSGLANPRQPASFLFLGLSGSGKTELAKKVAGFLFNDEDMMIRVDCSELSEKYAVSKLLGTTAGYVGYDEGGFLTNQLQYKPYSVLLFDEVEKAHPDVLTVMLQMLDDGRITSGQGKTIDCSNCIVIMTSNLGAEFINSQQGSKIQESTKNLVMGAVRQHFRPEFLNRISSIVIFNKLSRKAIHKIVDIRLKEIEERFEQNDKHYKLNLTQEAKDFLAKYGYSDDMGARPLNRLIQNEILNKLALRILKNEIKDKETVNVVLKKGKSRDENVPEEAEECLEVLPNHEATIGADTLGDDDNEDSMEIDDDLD
Procedure: Hsp104 was diluted into ATPase buffer with or without Suramin (100 µM) in the presence or absence of ATP (1 mM). The Hsp104 concentration was adjusted to 120 µM monomer and 20 µL of sample were fractionated by a Superdex 200 10/300 column (GE Healthcare Life Sciences, Piscataway, NJ) at room temperature and at a flow rate of 0.5 mL per minute in line with an Optilab T-rEX Refractive Interferometer (Wyatt Technologies, Santa Barbara, CA). Molecular weight markers were purchased from Bio-Rad Laboratories (Hercules, CA).

[5] = tested on: Δpdr5 yeast; experiment: Thermotolerance of Δpdr5 yeast; type: cell-based; settings: Suramin 100 µM, data not shown
[6] = biological target: T4, Quantilum recombinant luciferase (Photinus pyralis, UniProt P08659); experiment: Luciferase activity determination (native luciferase control); type: biochemical; settings: Suramin 100 µM, luciferase 50 nM; data not shown
T4 construct: purchased Promega (Madison, WI)
T4 sequence (P08659 whole entry): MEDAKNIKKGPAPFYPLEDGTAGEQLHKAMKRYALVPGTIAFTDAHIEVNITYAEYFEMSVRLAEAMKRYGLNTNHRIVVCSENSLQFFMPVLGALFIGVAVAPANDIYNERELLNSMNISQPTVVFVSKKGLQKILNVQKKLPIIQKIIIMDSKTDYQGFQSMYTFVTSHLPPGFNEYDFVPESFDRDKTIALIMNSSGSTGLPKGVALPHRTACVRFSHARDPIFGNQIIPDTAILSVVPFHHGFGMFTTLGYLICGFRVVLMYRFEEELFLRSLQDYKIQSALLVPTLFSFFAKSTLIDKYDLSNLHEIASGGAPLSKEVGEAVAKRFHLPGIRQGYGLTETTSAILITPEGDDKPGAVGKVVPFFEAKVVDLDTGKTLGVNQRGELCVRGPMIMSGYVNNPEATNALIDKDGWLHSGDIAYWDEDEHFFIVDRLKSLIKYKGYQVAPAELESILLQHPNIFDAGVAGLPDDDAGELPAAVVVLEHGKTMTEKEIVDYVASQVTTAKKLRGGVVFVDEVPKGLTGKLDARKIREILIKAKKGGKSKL
Procedure: Quantilum recombinant luciferase (native) was diluted to 5000, 500, 50, 5 and 0.5 nM in the presence or absence of Suramin. Dilutions were mixed with luciferase assay system (Promega). Luciferase activity was assessed by luminescence measured on a Safire^2 microplate reader.

T1 sequence (P31539 whole entry): as the sequence (P31539 whole entry) above

Cc1ccc(C(=O)Nc2ccc(S(=O)(=O)O)c3cc(S(=O)(=O)O)cc(S(=O)(=O)O)c23)cc1NC(=O)c1cccc(NC(=O)Nc2cccc(C(=O)Nc3cc(C(=O)Nc4ccc(S(=O)(=O)O)c5cc(S(=O)(=O)O)cc(S(=O)(=O)O)c45)ccc3C)c2)c1 [Suramin]
Effect on RepA1–70-GFP unfolding by Hsp104 ([1]; Suramin 25 µM): only mildly inhibited | Effect on RepA1–70-GFP unfolding by Hsp104 ([1]; Suramin 100 µM): prevented substrate unfolding | Effect on substrate translocation (FITC-casein degradation by HAP/ClpP) ([2]; Suramin 25 µM): permits translocation activity equivalent to that by untreated HAP in conjunction with ClpP | Effect on substrate translocation (FITC-casein degradation by HAP/ClpP) ([2]; Suramin 100 µM): completely abolished substrate translocation | Normalized ATPase Activity ([3]; ClpB 0.25 µM monomer, Suramin 100 µM): 0.76 | Normalized ATPase Activity ([3]; ClpB, Suramin 1 µM): 1.01 | Normalized ATPase Activity ([3]; ClpB, Suramin 5 µM): 0.65 | Normalized ATPase Activity ([3]; ClpB, Suramin 10 µM): 0.59 | Normalized ATPase Activity ([3]; ClpB, Suramin 25 µM): 0.60 | Normalized ATPase Activity ([3]; ClpB, Suramin 50 µM): 0.78 | inhibition at 100 µM ([3]; Suramin 100 µM): 24% | Effect on Hsp104 hexamerization (gel filtration elution profile) [4]: does not interfere with hexamerization | Effect on thermotolerance [5]: impaired neither | Effect on luciferase activity itself [6]: did not inhibit luciferase activity
